In patent US7514432B2, “Compounds and methods of treating cell proliferative diseases, retinopathies and arthritis” (Exonhit Therapeutics SA, priority 2003, dated 2009):
Read-outs that look alike come from different tables or passages of the source.

Tests used:
HCT116 cells = assay: Anchorage-independent cell growth assay in soft agar; assay type: cell-based, human; details: 7 days; for IC50: Homo sapiens, HCT-116, 168 h, HCT116, 0.3% agar
Protocol: FIG. 3: Anchorage-independent growth assay in soft agar. 5 10^3 cells were seeded in 24-well plates in 0.3% agar-containing medium supplemented with the designated amount of compounds. After 7 days of incubation at 37° C., pictures of each well were taken and analyzed using the ImageJ image analysis software. In particular, clone size and number were calculated. The data were analyzed using GraphPad Prism, and IC50 was calculated. […] (A) Typical dose-response curves obtained for clone size and number. (B) Bar graph displaying the IC50s calculated for each compound.
In order to evaluate the effect of one compound on the capacity of tumour cells to grow without anchorage, HCT116 cells were seeded in soft agar. In contrast to microplate assays which average the drug's effects over an entire cell population, clonogenic assays offer the possibility of distinguishing cytotoxic agents (i.e., decreased colony number) from cytostatic agents (i.e., decreased colony size without decreased colony number; Murphy M. J. et al., 1996). Briefly, 5 10^3 HCT116 cells were resuspended in 300 μl of complete medium containing 0.3% soft-agar (Difco) and different concentrations of compound (8 concentrations ranging from 0 to 30 μM). Cells were then poured on a solidified layer of medium containing 0.5% of soft agar plus the compound at the same concentration as in the upper layer. Cells were incubated for 7 days at 37° C. before pictures of each well were taken using a phase contrast microscope (Nikon) and a digital camera (Nikon Coolpix 990). Pictures were subsequently analyzed using free image analysis software from the NIH (ImageJ) allowing determination of clone size and number.
Data were analyzed using the GraphPad Prism software, and IC50 (dose leading to a 50% decrease of clone size or number) was calculated from dose-response curves.

HMEC1 = assay: Cell viability assay (MTT), HMEC1; assay type: cell-based, Human; details: MTT, 10% FBS, 6-day treatment, 1% DMSO
Summary of the method: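 HMEC1 cells seeded 24 h before dosing, then exposed to 0–200 μM compound (11 concentrations) in medium with 10% FBS and 1% DMSO final, refed every 3 days. Viability read on day 6 by MTT (0.5 mg/ml, 1–5 h at 37 °C), absorbance 550 nm; IC50 from dose-response curves, mean±SEM of 1–8 experiments.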

MDA-MB-231 = assay: Cell viability assay (MTT), MDA-MB-231; assay type: cell-based, human; details: Homo sapiens, 1% DMSO
Summary of the method: (§1)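 Cells seeded 24 h before treatment with 0–200 μM compound (11 concentrations, 1% DMSO final) in 10% or 0.5% FBS medium; exposure 16 h, 3 or 6 days, fed every 3 days in 6-day runs. MTT 0.5 mg/ml read at 550 nm; IC50 from dose-response curves, mean±SEM.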

NIH 3T3 = assay: Cell viability assay (MTT), NIH 3T3; assay type: cell-based, mouse; details: Mus musculus, 10% FBS, 1% DMSO
Summary of the method: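 MTT viability in medium with 10% FBS and 1% DMSO, with cells seeded 24 h before treatment at 0–200 μM (11 concentrations). There were two formats: 6-day (3–15 10^3 cells, re-fed every 3 days) or 16-hour (5–10 10^4 cells). Absorbance was read at 550 nm, giving IC50 (50% cell death) as mean±SEM.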

MCF7 = assay: Cell viability assay (MTT), MCF7; assay type: cell-based; details: Homo sapiens, MCF7, 72 h, 10% FBS, 3-day treatment, 1% DMSO
Protocol: Table 12: 6-day cell viability assay (MTT) in the presence of 10% Fetal Bovine Serum and 1% DMSO, in HMEC1, HCT116, MDA-MB-231, MCF7 and NIH3T3 cell lines. 3 10^3 to 15 10^3 cells were seeded in 48-well plates in growth medium containing 10% FBS, with or without various concentrations of test compounds. Cell cultures were fed every 3 days with the appropriate media. Cell viability was determined on day 6. Data were analyzed and IC50s were calculated from dose-response curves using GraphPad Prism. Results summarized in the tables are mean±SEM of 1 to 8 independent experiments.
(§2) Table 14: 3-day cell viability assay (MTT) in the presence of 10% Fetal Bovine Serum and 1% DMSO, in DLD1, HCT116, MDA-MB-231, MCF7 and HeLa cells. 7.5 10^3 to 1.5 10^4 cells were seeded in 48-well plates in growth medium containing 10% FBS, with or without various concentrations of test compounds. Data were analyzed and IC50s were calculated from dose-response curves using GraphPad Prism. Results summarized in the tables are mean±SEM of 1 to 7 independent experiments.
(§3) In order to determine a compound's effect on cell viability, microculture tetrazolium assays (MTT) were performed as described by Carmichael et al. (1996) with modifications. Four human tumoral cell lines, namely HCT116 colon adenocarcinoma, H460 lung carcinoma, MCF-7 and MDA-MB-231 breast carcinoma cell lines, DLD1 colorectal adenocarcinoma, HeLa adenocarcinoma, HepG2 hepatocellular carcinoma. 3 immortalized but non tumorigenic cell lines, namely NIH3T3 mouse fibroblasts (American Type Culture Collection) and primary hepatocytes (Biopredic international), cultured according to their recommendations together with Human Microvasculature Endothelial Cell line HMEC1 (National Center for Infectious Diseases). Briefly, cells were seeded in 48-well plates 24 hours before drug addition. Cells were treated with 0 to 200 μM (11 concentrations) of compound solubilized in DMSO, adjusting the final concentration of DMSO to 1% in the well. 16 hours, and three or six days after treatment, 0.5 mg/ml MTT (Sigma) was added to the medium and cells were incubated for 1-5 hours at 37° C. before solubilization of formazan crystals in 100% DMSO. Absorbance was measured using a spectrophotometer at a wavelength of 550 nm. Data was analyzed using the GraphPad Prism software (GraphPad Software, Inc.), and IC50 (dose leading to 50% cell death) was calculated from the dose-response curves.

HepG2 = assay: Cell viability assay (MTT), HepG2; assay type: cell-based; details: Homo sapiens, 10% FBS, 16-hours treatment, 1% DMSO
Protocol: (§4) Table 15: 16-hour cell viability assay (MTT) in the presence of 10% Fetal Bovine Serum and 1% DMSO, in HCT116, MDA-MB-231, NIH3T3, HepG2 and primary hepatocytes. 5 10^4 to 10 10^4 cells were seeded in 48-well plates in growth medium containing 10% FBS, with or without various concentrations of test compounds. Data were analyzed and IC50s were calculated from dose-reponse curves using GraphPad Prism. Results summarized in the tables are mean±SEM of 1 to 2 independent experiments.
as §3

HeLa = assay: Cell viability assay (MTT), HeLa; assay type: cell-based; details: Homo sapiens, 72 h, 10% FBS, 3-day treatment, 1% DMSO
Protocol: as §2, §3

HCT116 = assay: Cell viability assay (MTT), HCT116; assay type: cell-based, human; details: 1% DMSO
Summary of the method: as §1

DLD1 = assay: Cell viability assay (MTT), DLD1; assay type: cell-based; details: Homo sapiens, DLD-1, 72 h, 10% FBS, 3-day treatment, 1% DMSO
Protocol: as §2, §3

Primary Hepatocytes = assay: Cell viability assay (MTT), primary hepatocytes; assay type: cell-based; details: Hepatocyte, 10% FBS, 16-hours treatment, 1% DMSO
Protocol: as §4, §3

[1] = test system: Salmonella typhimurium TA 98 and TA 100 strains; assay: Screening Ames test; details: with and without S9 mix; 10 to 5000 μg per plate
Text: The objective of this study was to evaluate the potential of the test items to induce reverse mutation in Salmonella Typhimurium (TA 98 and TA 100 strains). The bacterial reverse mutation test is able to identify substances that cause point mutations, by substitution, addition or deletion of one or a few DNA base-pairs. Mutagenic substances can induce reversion in histidine deficient strains which are then able to grow and form colonies in a histidine-limited medium, while non-reverted cannot. This test is performed in the absence and presence of a rat liver metabolising system (S9 mix). Three known mutagens are used to check sensitivity of test system: sodium azide, 2-nitrofluorene and 2-anthramine.
The dose levels per plate were of 10 to 5000 μg. A preliminary toxicity test was performed followed by the mutagenecity test per se.

[2] = MDA-MB-231, 144 h, 10% FBS, 6-day treatment, read-out: IC50 μM, MDA-MB-231
[3] = MDA-MB-231, 144 h, 0.5% FBS, 6-day treatment, read-out: IC50 (μM), MDA-MB-231
[4] = Homo sapiens, HCT-116, 144 h, 0.5% FBS, 6-day treatment
[5] = Homo sapiens, HCT-116, 144 h, 10% FBS, 6-day treatment

| IC50 (HCT116 cells) | IC50 (MDA-MB-231; [2]) | Structure (SMILES) | IC50 (HMEC1; Homo sapiens, HMEC-1, 144 h) | IC50 (NIH 3T3; NIH3T3, 144 h, 6-day treatment) | IC50 (MDA-MB-231; [3]) | IC50 (HCT116; [4]) | IC50 (HCT116; [5]) | other results |
| --- | --- | --- | --- | --- | --- | --- | --- | --- |
| 5.4 ± 1.2 µM | 11.5 µM | O=c1cc(COC2CCCCO2)occ1OCCCCCSc1ccnc2cc(C(F)(F)F)ccc12 (stereo not shown) [EHT 9376, 2-(Tetrahydro-pyran-2-yloxymethyl)-5-[5-(7-trifluoromethyl-quinolin-4-ylsulfanyl)-pentyloxy]-4H-pyran-4-one] | < 10 µM | 8.1 µM |  |  |  | IC50 (HMEC1): 8.2 µM |
| 5.8 ± 1 µM | 1.3 µM | NC(=O)c1nnn(Cc2cc(Cl)c(C(=O)c3ccc(Cl)cc3)c(Cl)c2)c1N [CAI, carboxyamidotriazole, reference compound] | 28.4 µM | 5.8 µM | 0.4 µM | 0.6 µM | 1 µM | mode of action: clone size versus clone number (HCT116 cells; soft agar): preferentially affect clone size as compared to clone number; IC50 (MDA-MB-231; MDA-MB-231, 16 h, 10% FBS, 16-hours treatment, read-out: IC50 μM, MDA-MB-231): > 50 µM; IC50 (NIH 3T3; NIH3T3, 16 h, 16-hours treatment): 95.9 µM; IC50 (HCT116; Homo sapiens, HCT-116, 16 h, 10% FBS, 16-hours treatment): 44.1 µM |

| Structure (SMILES) | IC50 (HCT116 cells) | IC50 (MDA-MB-231; [2]) | IC50 (HMEC1; Homo sapiens, HMEC-1, 144 h) | IC50 (NIH 3T3; NIH3T3, 144 h, 6-day treatment) | IC50 (MDA-MB-231; [3]) | IC50 (HCT116; [4]) | IC50 (HCT116; [5]) | other results |
| --- | --- | --- | --- | --- | --- | --- | --- | --- |
| O=c1cc(CN2CCOCC2)occ1OCc1cccc(CSc2ccnc3cc(C(F)(F)F)ccc23)c1 [EHT 2725, 5-((3-((7-(Trifluoromethyl)quinolin-4-ylthio)methyl)phenyl)methoxy)-2-(morpholinomethyl)-4H-pyran-4-one] |  | 9.3 µM | 28.1 µM | 24.8 µM | 6.4 µM | 5.4 µM | < 4 µM | IC50 (MCF7): 7.3 µM; IC50 (MDA-MB-231; MDA-MB-231, 72 h, 10% FBS, 3-day treatment, read-out: IC50 μM, MDA-MB-231): 19.5 µM; IC50 (HepG2): 45.2 µM; IC50 (HeLa): 20.9 µM; IC50 (HCT116; 10% FBS, 6-day treatment): 2.7 µM; IC50 (HCT116; Homo sapiens, HCT-116, 72 h, 10% FBS, 3-day treatment): 9.9 µM; IC50 (DLD1): 12.2 µM; IC50 (Primary Hepatocytes): > 50 µM; mutagenic activity [1]: did not show any mutagenic activity |
